US20230233690A1, “ANDROGEN RECEPTOR PROTEIN DEGRADERS” (THE REGENTS OF THE UNIVERSITY OF MICHIGAN, priority 2020, published 2023)

Molecular target: T1, AR protein (Homo sapiens, UniProt P10275, T878A)
T1 construct: endogenous in cells; host or cells: LNCaP
T1 sequence (P10275 1-920 T878A): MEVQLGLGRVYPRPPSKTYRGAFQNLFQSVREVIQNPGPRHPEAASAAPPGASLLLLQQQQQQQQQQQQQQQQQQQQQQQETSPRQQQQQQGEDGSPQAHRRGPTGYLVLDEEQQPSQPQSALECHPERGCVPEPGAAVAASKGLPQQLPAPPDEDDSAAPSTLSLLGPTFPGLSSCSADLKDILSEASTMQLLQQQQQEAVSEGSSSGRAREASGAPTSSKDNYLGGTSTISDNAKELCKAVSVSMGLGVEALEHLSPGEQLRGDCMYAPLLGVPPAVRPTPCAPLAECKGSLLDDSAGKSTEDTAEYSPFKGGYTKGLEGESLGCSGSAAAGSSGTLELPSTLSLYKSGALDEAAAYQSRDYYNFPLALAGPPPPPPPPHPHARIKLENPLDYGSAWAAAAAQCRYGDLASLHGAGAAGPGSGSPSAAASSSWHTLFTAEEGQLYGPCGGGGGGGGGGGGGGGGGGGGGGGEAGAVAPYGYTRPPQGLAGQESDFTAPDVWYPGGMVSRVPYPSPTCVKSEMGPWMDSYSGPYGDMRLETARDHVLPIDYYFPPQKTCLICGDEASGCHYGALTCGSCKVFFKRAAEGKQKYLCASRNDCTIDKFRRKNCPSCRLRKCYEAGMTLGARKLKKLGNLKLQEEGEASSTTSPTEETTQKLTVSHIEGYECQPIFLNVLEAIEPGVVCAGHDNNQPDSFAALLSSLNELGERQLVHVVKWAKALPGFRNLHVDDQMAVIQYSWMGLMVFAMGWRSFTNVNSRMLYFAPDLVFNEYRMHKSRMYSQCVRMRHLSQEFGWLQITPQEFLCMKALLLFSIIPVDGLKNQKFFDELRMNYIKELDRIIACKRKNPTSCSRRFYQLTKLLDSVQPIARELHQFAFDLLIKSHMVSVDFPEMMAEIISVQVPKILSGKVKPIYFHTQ
Assay: Western blotting of AR protein degradation in LNCaP cells
Format: cell-based
Settings: 24 hr treatment
Method: The appropriate cell line, e.g., prostate cancer LNCaP, Vcap, or MDA-MB-453 cell line, was treated with Compounds of the Disclosure. The treated cells were lysed with RIPA buffer. The AR level in the cell lysates was examined by western blotting and a specific AR antibody (ab194196, Abcam, Cambridge, Mass. 02139) with concentration of 1:20,000. GAPDH was used as a loading control.
Bands were quantified with ImageJ software. The relative numbers of each band obtained from normalization with its corresponding GAPDH level were compared with Prism 8 software. The DC50 values were produced from Prism 8, and the DC90 values were calculated with an equation=Bottom+(Top−Bottom)/(1+10^((Log EC50−X)*HillSlope) based on DC50 and Hillslope values.
The amount of AR protein degradation in LNCaP, VCap, and MDA-MB-453 cells caused representative Compounds of the Disclosure at the concentrations indicated is presented in Table 4 and Table 5.

CC1(C)[C@H](NC(=O)c2ccc(N3CCN(CCCCCOc4cccc5c4CN(C4CCC(=O)NC4=O)C5=O)CC3)nc2)C(C)(C)[C@H]1Oc1ccc(C#N)c(Cl)c1 (some centres unmarked) [compound 50]
AR protein degradation LNCAP 10 nM (10 nM): A (>90% degradation (24 hr treatment))
AR protein degradation LNCAP 100 nM (100 nM): A (>90% degradation (24 hr treatment))
